How the values were obtained:
Experiment in all cases: Test B preemergence/postemergence greenhouse plant response rating 0 to 10
sugar beet = format: in vivo, Beta vulgaris; conditions: 0 to 10 scale
Procedure, shortened: (§1)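 Test chemicals were sprayed onto freshly planted seed and, concurrently, onto young plants between the one and four leaf stage. After a twelve- to sixteen-day greenhouse period, each species was visually compared with untreated controls.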

corn = format: in vivo, Zea mays; conditions: for Plant response rating, Corn: 0 to 10 scale
Procedure, shortened: as §1

rice = format: in vivo, Oryza sativa; conditions: 0 to 10 scale
Procedure, shortened: as §1

wild oat = format: in vivo, Avena fatua; conditions: 0 to 10 scale
Procedure, shortened: as §1

blackgrass = format: in vivo, Alopecurus myosuroides; conditions: for Plant response rating, Blackgrass: 0 to 10 scale
Procedure, shortened: as §1

cotton = format: in vivo, Gossypium hirsutum; conditions: for Plant response rating, Cotton: 0 to 10 scale
Procedure, shortened: as §1

purple nutsedge = format: in vivo, Cyperus rotundus; conditions: 0 to 10 scale
Procedure, shortened: as §1

crabgrass = format: in vivo, Digitaria spp.; conditions: for Plant response rating, Crabgrass: 0 to 10 scale
Procedure, shortened: as §1

wheat = format: in vivo, Triticum aestivum; conditions: 0 to 10 scale
Procedure, shortened: as §1

sorghum = format: in vivo, Sorghum bicolor; conditions: 0 to 10 scale
Procedure, shortened: as §1

SMILES | Plant response rating, Sugar beet (sugar beet; POSTEMERGENCE, Rate 50 g/ha) | Plant response rating, Sugar beet (sugar beet; POSTEMERGENCE, Rate 200 g/ha) | Plant response rating, Sugar beet (sugar beet; PREEMERGENCE, Rate 50 g/ha) | Plant response rating, Sugar beet (sugar beet; Rate 200 g/ha, PREEMERGENCE) | Plant response rating (0 to 10 scale), Corn (corn; POSTEMERGENCE, Rate 50 g/ha) | Plant response rating, Corn (corn; POSTEMERGENCE, Rate 200 g/ha) | Plant response rating, Corn (corn; PREEMERGENCE, Rate 50 g/ha) | Plant response rating, Corn (corn; Rate 200 g/ha, PREEMERGENCE) | Plant response rating, Rice (rice; POSTEMERGENCE, Rate 50 g/ha) | Plant response rating, Rice (rice; POSTEMERGENCE, Rate 200 g/ha) | Plant response rating, Rice (rice; PREEMERGENCE, Rate 50 g/ha) | Plant response rating, Rice (rice; Rate 200 g/ha, PREEMERGENCE) | Plant response rating, Wild oat (wild oat; POSTEMERGENCE, Rate 50 g/ha) | Plant response rating, Wild oat (wild oat; POSTEMERGENCE, Rate 200 g/ha) | Plant response rating, Wild oat (wild oat; Rate 200 g/ha, PREEMERGENCE) | Plant response rating (0 to 10 scale), Blackgrass (blackgrass; POSTEMERGENCE, Rate 50 g/ha) | Plant response rating, Blackgrass (blackgrass; POSTEMERGENCE, Rate 200 g/ha) | Plant response rating, Blackgrass (blackgrass; PREEMERGENCE, Rate 50 g/ha) | Plant response rating, Blackgrass (blackgrass; Rate 200 g/ha, PREEMERGENCE) | Plant response rating (0 to 10 scale), Cotton (cotton; POSTEMERGENCE, Rate 50 g/ha) | other results
CCCOc1cc(-c2nn3c(c2Cl)CCCC3)c(F)cc1Cl [Compound 23] | 10 | 10 | 9 | 10 | 4 | 6 | 0 | 6 | 4 | 6 | 0 | 2 | 3 | 5 | 6 | 6 | 6 | 6 | 7 | 10 | Plant response rating, Cotton (cotton; POSTEMERGENCE, Rate 200 g/ha): 10; Plant response rating, Cotton (cotton; PREEMERGENCE, Rate 50 g/ha): 5; Plant response rating, Cotton (cotton; Rate 200 g/ha, PREEMERGENCE): 5; Plant response rating, Nutsedge (purple nutsedge; POSTEMERGENCE, Rate 50 g/ha): 2; Plant response rating, Nutsedge (purple nutsedge; POSTEMERGENCE, Rate 200 g/ha): 3; Plant response rating, Nutsedge (purple nutsedge; PREEMERGENCE, Rate 50 g/ha): 0; Plant response rating, Nutsedge (purple nutsedge; Rate 200 g/ha, PREEMERGENCE): 0; Plant response rating (0 to 10 scale), Crabgrass (crabgrass; POSTEMERGENCE, Rate 50 g/ha): 2; Plant response rating, Crabgrass (crabgrass; POSTEMERGENCE, Rate 200 g/ha): 6; Plant response rating, Crabgrass (crabgrass; PREEMERGENCE, Rate 50 g/ha): 2; Plant response rating, Crabgrass (crabgrass; Rate 200 g/ha, PREEMERGENCE): 9; Plant response rating, Wheat (wheat; POSTEMERGENCE, Rate 50 g/ha): 2; Plant response rating, Wheat (wheat; POSTEMERGENCE, Rate 200 g/ha): 6; Plant response rating, Wheat (wheat; PREEMERGENCE, Rate 50 g/ha): 0; Plant response rating, Wheat (wheat; Rate 200 g/ha, PREEMERGENCE): 2; Plant response rating, Sorghum (sorghum; POSTEMERGENCE, Rate 50 g/ha): 4; Plant response rating, Sorghum (sorghum; POSTEMERGENCE, Rate 200 g/ha): 6; Plant response rating, Sorghum (sorghum; PREEMERGENCE, Rate 50 g/ha): 0; Plant response rating, Sorghum (sorghum; Rate 200 g/ha, PREEMERGENCE): 2
Fc1cc(Cl)c(OCc2ccccc2)cc1-c1nn2c(c1Cl)CCCC2 [Compound 22] | 9 | 6 | 1 | 9 | 3 | 4 | 2 | 4 | 4 | 5 | 0 | 2 | 3 | 3 | 1 | 3 | 3 | 0 | 5 | 10 | Plant response rating, Cotton (cotton; POSTEMERGENCE, Rate 200 g/ha): 10; Plant response rating, Cotton (cotton; PREEMERGENCE, Rate 50 g/ha): 2; Plant response rating, Cotton (cotton; Rate 200 g/ha, PREEMERGENCE): 4; Plant response rating, Nutsedge (purple nutsedge; POSTEMERGENCE, Rate 50 g/ha): 2; Plant response rating, Nutsedge (purple nutsedge; POSTEMERGENCE, Rate 200 g/ha): 2; Plant response rating, Nutsedge (purple nutsedge; PREEMERGENCE, Rate 50 g/ha): 0; Plant response rating, Nutsedge (purple nutsedge; Rate 200 g/ha, PREEMERGENCE): 0; Plant response rating (0 to 10 scale), Crabgrass (crabgrass; POSTEMERGENCE, Rate 50 g/ha): 3; Plant response rating, Crabgrass (crabgrass; POSTEMERGENCE, Rate 200 g/ha): 2; Plant response rating, Crabgrass (crabgrass; PREEMERGENCE, Rate 50 g/ha): 2; Plant response rating, Crabgrass (crabgrass; Rate 200 g/ha, PREEMERGENCE): 4; Plant response rating, Wheat (wheat; POSTEMERGENCE, Rate 50 g/ha): 3; Plant response rating, Wheat (wheat; POSTEMERGENCE, Rate 200 g/ha): 4; Plant response rating, Wheat (wheat; PREEMERGENCE, Rate 50 g/ha): 0; Plant response rating, Wheat (wheat; Rate 200 g/ha, PREEMERGENCE): 1; Plant response rating, Sorghum (sorghum; POSTEMERGENCE, Rate 50 g/ha): 5; Plant response rating, Sorghum (sorghum; POSTEMERGENCE, Rate 200 g/ha): 5; Plant response rating, Sorghum (sorghum; PREEMERGENCE, Rate 50 g/ha): 0; Plant response rating, Sorghum (sorghum; Rate 200 g/ha, PREEMERGENCE): 3

Source: patent US6358885B1, “Substituted phenylheterocyclic herbicides” (Mississippi State University, priority 1992, dated 2002)
